Test results reported in the CheMixHub viscosity set.

Test: xn = mol fraction of the nth substance listed

CCCCCCCCCCCC(=O)OCC + CCCCCCO
viscosity [mPa·s], 101.33 kPa
Settings	293.15 K	298.15 K	303.15 K	308.15 K	313.15 K	318.15 K	323.15 K
x2 = 0.1	3.266	2.909	2.623	2.367	2.136	1.965	1.778
x2 = 0.2	3.214	2.867	2.596	2.334	2.09	1.918	1.731
x2 = 0.2999	3.216	2.872	2.575	2.309	2.095	1.896	1.724
x2 = 0.4	3.215	2.868	2.57	2.296	2.067	1.883	1.695
x2 = 0.4999	–	2.906	2.597	2.316	2.073	1.896	1.7
x2 = 0.5	3.25	–	–	–	–	–	–
x2 = 0.5999	3.374	–	–	–	–	–	–
x2 = 0.6	–	3.01	2.673	2.379	2.13	1.942	1.725
x2 = 0.7	3.486	3.101	2.771	2.459	2.186	1.965	1.761
x2 = 0.8	3.852	3.366	2.979	2.621	2.316	2.079	1.848
x2 = 0.8999	4.374	–	–	–	–	–	–
x2 = 0.9	–	3.769	3.316	2.902	2.568	2.261	1.972

CCN(CC)c1ccccc1 + CCCCCCO
viscosity [mPa·s], 100 kPa
Settings	x1 = 0.1057	x1 = 0.1952	x1 = 0.3004	x1 = 0.4021	x1 = 0.5011	x1 = 0.6117	x1 = 0.7135	x1 = 0.8163	x1 = 0.9045
303.15 K	3.391	3.041	2.695	2.423	2.207	2.014	1.879	1.78	1.725
308.15 K	2.85	2.524	2.226	1.997	1.814	1.667	1.577	1.525	1.501
313.15 K	2.403	2.096	1.835	1.652	1.518	1.405	1.332	1.297	1.313
318.15 K	2.105	1.801	1.569	1.421	1.314	1.218	1.151	1.119	1.148

CCCCC(CC)COC(C)=O (stereo not drawn) + CCCCCO
viscosity [mPa·s], 101.33 kPa
Settings	x1 = 0.1041	x1 = 0.2073	x1 = 0.3002	x1 = 0.4211	x1 = 0.4987	x1 = 0.6	x1 = 0.7008	x1 = 0.8092	x1 = 0.9033
293.15 K	3.692	3.321	3.019	2.666	2.462	2.219	2	1.79	1.625
303.15 K	2.68	2.451	2.262	2.037	1.905	1.745	1.599	1.456	1.342
313.15 K	2.119	1.955	1.818	1.653	1.556	1.437	1.328	1.22	1.134
323.15 K	1.255	1.209	1.169	1.119	1.087	1.048	1.01	0.971	0.938

CCCCCCCCCCCC(=O)OCC + CCCCCO
viscosity [mPa·s], 101.33 kPa
Settings	x2 = 0.1	x2 = 0.2	x2 = 0.2999	x2 = 0.4	x2 = 0.4999	x2 = 0.6	x2 = 0.7	x2 = 0.8	x2 = 0.9
293.15 K	3.228	3.128	3.064	3.018	2.992	2.994	3.044	3.147	3.437
298.15 K	2.884	2.802	2.741	2.699	2.68	2.667	2.706	2.783	3.024
303.15 K	2.603	2.515	2.46	2.424	2.387	2.383	2.403	2.479	2.663
308.15 K	2.349	2.275	2.238	2.173	2.141	2.131	2.142	2.201	2.351
313.15 K	2.12	2.065	2.014	1.954	1.926	1.913	1.919	1.963	2.074
318.15 K	1.948	1.888	1.852	1.801	1.765	1.745	1.735	1.776	1.867
323.15 K	1.759	1.699	1.658	1.601	1.569	1.546	1.553	1.584	1.652

CCCCC(CC)COC(C)=O (stereo not drawn) + CCCCO
viscosity [mPa·s], 101.33 kPa
Settings	x1 = 0.0991	x1 = 0.2017	x1 = 0.2984	x1 = 0.4115	x1 = 0.5002	x1 = 0.6078	x1 = 0.7049	x1 = 0.8061	x1 = 0.9005
293.15 K	2.681	2.504	2.344	2.177	2.052	1.91	1.791	1.674	1.572
303.15 K	2.139	2.01	1.894	1.768	1.675	1.568	1.478	1.389	1.311
313.15 K	1.605	1.529	1.461	1.386	1.329	1.264	1.207	1.151	1.101
323.15 K	1.07	1.05	1.031	1.01	0.994	0.974	0.957	0.939	0.923

CCCN(CCC)CCC + CCCCO
303.15 K, 101 kPa
Settings	viscosity [mPa·s]
x1 = 0.01186	2.225
x1 = 0.01943	2.201
x1 = 0.03035	2.178
x1 = 0.03999	2.157
x1 = 0.05088	2.133
x1 = 0.0617	2.112
x1 = 0.07408	2.085
x1 = 0.08019	2.074
x1 = 0.08635	2.059

ClCCCCl + CCCCO
viscosity [mPa·s], 101 kPa
Settings	x1 = 0.0958	x1 = 0.2016	x1 = 0.3004	x1 = 0.3983	x1 = 0.5002	x1 = 0.5993	x1 = 0.6997	x1 = 0.7997	x1 = 0.9
298.15 K	2.139	1.773	1.512	1.32	1.177	1.071	0.9963	0.9461	0.9256
313.15 K	1.488	1.261	1.101	0.9831	0.8935	0.8317	0.7876	0.76	0.7528

CCN(CC)c1ccccc1 + CCCCOCCO
viscosity [mPa·s], 101.3 kPa
Settings	x2 = 0.0979	x2 = 0.2008	x2 = 0.289	x2 = 0.3526	x2 = 0.4964	x2 = 0.5968	x2 = 0.7021	x2 = 0.794	x2 = 0.8979
298 K	1.87	1.887	1.923	1.968	2.102	2.198	2.343	2.461	2.631
303 K	1.679	1.686	1.711	1.756	1.853	1.942	2.067	2.175	2.305
308 K	1.511	1.516	1.538	1.572	1.655	1.731	1.844	1.927	2.048
313 K	1.369	1.371	1.393	1.429	1.487	1.552	1.65	1.725	1.824
318 K	1.248	1.249	1.262	1.286	1.365	1.402	1.481	1.544	1.631

CCCCCCCCCCCC(=O)OCC + CCCO
viscosity [mPa·s], 101.33 kPa
Settings	x2 = 0.1001	x2 = 0.2003	x2 = 0.3	x2 = 0.3999	x2 = 0.5	x2 = 0.5999	x2 = 0.7	x2 = 0.8	x2 = 0.9
293.15 K	3.214	3.059	2.924	2.798	2.671	2.547	2.426	2.307	2.215
298.15 K	2.875	2.742	2.62	2.504	2.398	2.286	2.175	2.078	1.997
303.15 K	2.579	2.464	2.353	2.252	2.15	2.052	1.956	1.869	1.786
308.15 K	2.32	2.218	2.12	2.025	1.936	1.845	1.756	1.674	1.6
313.15 K	2.108	2.013	1.919	1.833	1.749	1.669	1.59	1.513	1.44
318.15 K	1.935	1.849	1.767	1.688	1.609	1.531	1.454	1.381	1.315
323.15 K	1.748	1.67	1.595	1.522	1.451	1.382	1.315	1.251	1.188

CCCC[NH3+].O=[N+]([O-])[O-] + CCCO
Settings	viscosity [mPa·s]
293.15 K, 101 kPa, x1 = 0.9008	83.35

Clc1ccc(Cl)c(Cl)c1 + CCNc1ccccc1
viscosity [mPa·s], 101 kPa
Settings	303.15 K	308.15 K
x2 = 0.0875	1.784	1.618
x2 = 0.1559	1.783	1.615
x2 = 0.2286	1.782	1.612
x2 = 0.2938	1.781	1.609
x2 = 0.3656	1.779	1.607
x2 = 0.4225	1.777	1.604
x2 = 0.4952	1.775	1.6
x2 = 0.5659	1.772	1.595
x2 = 0.6359	1.768	1.589
x2 = 0.7025	1.763	1.584
x2 = 0.7812	1.758	1.577
x2 = 0.8525	1.752	1.571
x2 = 0.9199	1.748	1.565

CCCC(C)CO (stereo not drawn) + CCO
298.15 K, 101.33 kPa
Settings	viscosity [mPa·s]
x2 = 0.1048	4.615
x2 = 0.2134	3.996
x2 = 0.3147	3.481
x2 = 0.4122	3.014
x2 = 0.5011	2.664
x2 = 0.6144	2.253
x2 = 0.7136	1.884
x2 = 0.7984	1.623
x2 = 0.9049	1.303

CC[n+]1ccn(C)c1.NCC(=O)[O-] + CCn1cc[n+](C)c1.N#C[C-](C#N)C#N
Settings	viscosity [mPa·s]
313.15 K, 101 kPa, x2 = 0.5001	22.25

CCCC(C)CO (stereo not drawn) + CO
298.15 K, 101.33 kPa
Settings	viscosity [mPa·s]
x2 = 0.0849	4.645
x2 = 0.2146	3.757
x2 = 0.3193	3.053
x2 = 0.4183	2.526
x2 = 0.5192	2.018
x2 = 0.6077	1.676
x2 = 0.7069	1.296
x2 = 0.8045	1.018
x2 = 0.9002	0.7552

CN1CCOC1=O + CS(C)=O
viscosity [mPa·s], 101.33 kPa
Settings	298.15 K	308.15 K	318.15 K
x1 = 0.0465	2.004	1.663	1.404
x1 = 0.0841	2.012	1.673	1.413
x1 = 0.1676	2.037	1.698	1.437
x1 = 0.2419	2.06	1.72	1.459
x1 = 0.3415	2.09	1.751	1.49
x1 = 0.4275	2.126	1.782	1.518
x1 = 0.5401	2.171	1.826	1.558
x1 = 0.6395	2.218	1.872	1.603
x1 = 0.7524	2.28	1.923	1.645
x1 = 0.8785	2.359	1.99	1.703
x1 = 0.9514	2.415	2.038	1.744

CC1(C)OC1C#N (stereo not drawn) + ClC(Cl)(Cl)Cl
viscosity [mPa·s], 101 kPa
Settings	293.15 K	298.15 K	303.15 K	313.15 K	323.15 K
x1 = 0.009	0.983	0.938	0.906	0.779	0.67
x1 = 0.087	0.98	0.937	0.877	0.754	0.675
